Results as given in patent US9302999B2, “Substituted triazoles as herbicides” (E. I. DU PONT DE NEMOURS AND COMPANY, priority 2012, dated 2016).

Columns and labels:
Assay type in all cases: in vivo
[1] = system: velvetleaf (Abutilon theophrasti); test: Test A pre-/postemergence: velvetleaf
Summary of the method: (§1)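 Visual 0–100 injury ratings (0 no effect, 100 complete control) taken about ten days after treatment, relative to untreated controls. Preemergence treatment was a directed soil spray; postemergence plants were 2–10 cm tall at one- to two-leaf stage. Soil: loam/sand blend.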

[2] = system: crabgrass, large (large crabgrass, Digitaria sanguinalis); test: Test A pre-/postemergence: crabgrass, large
Summary of the method: as §1

[3] = system: morningglory (Ipomoea spp.); test: Test A pre-/postemergence: morningglory
Summary of the method: as §1

[4] = system: barnyardgrass (Echinochloa crus-galli); test: Test C flooded paddy test: barnyardgrass; conditions: scale 0 to 100 (0 no effect, 100 complete control)
Summary of the method: (§2)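 Rating: visual, 0–100 (100 = complete control), versus untreated controls after 13 to 15 greenhouse days. Treatment went into paddy water held at 3 cm over the soil, on plants grown to two leaves.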

[5] = system: wheat (Triticum aestivum); test: Test A pre-/postemergence: wheat
Summary of the method: as §1

[6] = system: pigweed (Amaranthus retroflexus); test: Test A pre-/postemergence: pigweed
Summary of the method: as §1

[7] = system: ducksalad (Heteranthera limosa); test: Test C flooded paddy test: ducksalad; conditions: scale 0 to 100 (0 no effect, 100 complete control)
Summary of the method: as §2

corn (Zea mays) = test: Test A pre-/postemergence: corn
Summary of the method: as §1

[8] = system: foxtail, giant (giant foxtail, Setaria faberii); test: Test A pre-/postemergence: foxtail, giant
Summary of the method: as §1

[9] = system: sedge, umbrella (small-flower umbrella sedge, Cyperus difformis); test: Test C flooded paddy test: sedge, umbrella; conditions: scale 0 to 100 (0 no effect, 100 complete control)
Summary of the method: as §2

rice (Oryza sativa) = test: Test C flooded paddy test: rice; conditions: scale 0 to 100 (0 no effect, 100 complete control)
Summary of the method: as §2

[10] = system: barnyardgrass (Echinochloa crus-galli); test: Test A pre-/postemergence: barnyardgrass
Summary of the method: as §1

[11] = Postemergence, 1000 g ai/ha, visual rating on 0 to 100 scale (0 no effect, 100 complete control), approximately ten days
[12] = Preemergence, 1000 g ai/ha, 0 to 100 scale, 0 is no effect, 100 is complete control
[13] = Flood (flooded paddy test), 250 g ai/ha, visual rating after 13 to 15 days
[14] = Postemergence, 125 g ai/ha, 0 to 100 scale, 0 is no effect, 100 is complete control
[15] = Postemergence, 500 g ai/ha, visual rating on 0 to 100 scale (0 no effect, 100 complete control), approximately ten days
[16] = Preemergence, 125 g ai/ha, 0 to 100 scale where 0 is no effect and 100 is complete control
[17] = Preemergence, 500 g ai/ha, 0 to 100 scale, 0 is no effect, 100 is complete control
[18] = Preemergence, 125 g ai/ha, 0 to 100 scale (0 no effect, 100 complete control)
[19] = Flood (flooded paddy test), 125 g ai/ha, visual rating after 13 to 15 days

Cc1nn(-c2ccc(C(F)(F)F)cc2)nc1Cn1cnc(C(F)(F)F)c1 [Compound 96]
Velvetleaf plant response rating [1, 11]: 70 | Velvetleaf plant response rating [1, 12]: 0 | Crabgrass, Large plant response rating [2, 11]: 70 | Crabgrass, Large plant response rating [2, 12]: 100 | Morningglory plant response rating [3, 11]: 80 | Morningglory plant response rating [3, 12]: 40 | Plant response rating, Barnyardgrass [4, 13]: 10 | Plant response rating, Barnyardgrass ([4]; Flood, 62 g ai/ha): 10 | Wheat plant response rating [5, 11]: 30 | Wheat plant response rating [5, 12]: 0 | Pigweed plant response rating [6, 11]: 90 | Pigweed plant response rating [6, 12]: 100 | Plant response rating, Ducksalad [7, 13]: 50 | Plant response rating, Ducksalad ([7]; Flood, 62 g ai/ha): 40 | Corn plant response rating (corn (Zea mays); [11]): 30 | Corn plant response rating (corn (Zea mays); [12]): 0 | Foxtail, Giant plant response rating [8, 11]: 60 | Foxtail, Giant plant response rating [8, 12]: 90 | Plant response rating, Sedge, Umbrella [9, 13]: 80 | Plant response rating, Sedge, Umbrella ([9]; Flood, 62 g ai/ha): 75 | Plant response rating, Rice (rice (Oryza sativa); [13]): 0 | Plant response rating, Rice (rice (Oryza sativa); Flood, 62 g ai/ha): 0 | Barnyardgrass plant response rating [10, 11]: 40 | Barnyardgrass plant response rating [10, 12]: 70

Cc1nn(-c2ccc(F)cc2)nc1Oc1cccc(C(F)(F)F)c1 [Compound 98]
Velvetleaf plant response rating [1, 14]: 60 | Velvetleaf plant response rating [1, 15]: 80 | Plant response rating, Velvetleaf [1, 16]: 0 | Plant response rating, Velvetleaf [1, 17]: 50 | Crabgrass, Large plant response rating [2, 14]: 90 | Crabgrass, Large plant response rating [2, 15]: 90 | Plant response rating, Crabgrass, Large [2, 18]: 80 | Plant response rating, Crabgrass, Large [2, 17]: 100 | Morningglory plant response rating [3, 14]: 80 | Morningglory plant response rating [3, 15]: 100 | Plant response rating, Morningglory [3, 16]: 0 | Plant response rating, Morningglory [3, 17]: 10 | Plant response rating, Barnyardgrass [4, 19]: 30 | Plant response rating, Barnyardgrass [4, 13]: 70 | Plant response rating, Barnyardgrass ([4]; Flood, 31 g ai/ha): 0 | Plant response rating, Barnyardgrass ([4]; Flood, 62 g ai/ha): 0 | Wheat plant response rating [5, 14]: 10 | Wheat plant response rating [5, 15]: 30 | Plant response rating, Wheat [5, 16]: 0 | Plant response rating, Wheat [5, 17]: 20 | Pigweed plant response rating [6, 14]: 100 | Pigweed plant response rating [6, 15]: 100 | Plant response rating, Pigweed [6, 16]: 60 | Plant response rating, Pigweed [6, 17]: 100 | Plant response rating, Ducksalad [7, 19]: 30 | Plant response rating, Ducksalad [7, 13]: 70 | Plant response rating, Ducksalad ([7]; Flood, 31 g ai/ha): 0 | Plant response rating, Ducksalad ([7]; Flood, 62 g ai/ha): 0 | Corn plant response rating (corn (Zea mays); [14]): 20 | Corn plant response rating (corn (Zea mays); [15]): 30 | Plant response rating, Corn (corn (Zea mays); [18]): 0 | Plant response rating, Corn (corn (Zea mays); [17]): 10 | Foxtail, Giant plant response rating [8, 14]: 80 | Foxtail, Giant plant response rating [8, 15]: 90 | Plant response rating, Foxtail, Giant [8, 16]: 70 | Plant response rating, Foxtail, Giant [8, 17]: 100 | Plant response rating, Sedge, Umbrella [9, 19]: 40 | Plant response rating, Sedge, Umbrella [9, 13]: 80 | Plant response rating, Sedge, Umbrella ([9]; Flood, 31 g ai/ha): 0 | Plant response rating, Sedge, Umbrella ([9]; Flood, 62 g ai/ha): 0 | Plant response rating, Rice (rice (Oryza sativa); [19]): 30 | Plant response rating, Rice (rice (Oryza sativa); [13]): 40 | Plant response rating, Rice (rice (Oryza sativa); Flood, 31 g ai/ha): 0 | Plant response rating, Rice (rice (Oryza sativa); Flood, 62 g ai/ha): 0 | Barnyardgrass plant response rating [10, 14]: 30 | Barnyardgrass plant response rating [10, 15]: 80 | Plant response rating, Barnyardgrass [10, 18]: 10 | Plant response rating, Barnyardgrass [10, 17]: 60
